Laboratory results from US20160068843A1 (priority 2012, published 2016).
Like-named read-outs stand apart in the source and are kept apart here.

System: H5N1 virus (strain A/Vietnam/1194/04)
Assay type: in vivo, Balb/c mice

Compound	survival rate (mouse, in vivo)	survival rate (comparison with existing flu therapeutics, started 24 hours post challenge, siRNA intranasal 100 ug per dose twice a day for two days)
NC(=O)c1ncn([C@@H]2O[C@H](CO)[C@@H](O)[C@H]2O)n1 [Ribavirin]	0%	
CC(=O)N[C@H]1[C@H]([C@H](O)[C@H](O)CO)OC(C(=O)O)=C[C@@H]1N=C(N)N [Zanamivir]		40%
